US8338472B2, “Hexahydrocyclopentyl[F]indazole carboxamides and derivatives thereof as selective glucocorticoid receptor modulators” (Merck Sharp & Dohme Corp., priority 2008, dated 2012)
Where two headings read alike, the source gives them in different places.

Columns and labels:
Glucocorticoid Receptor = biological target: T1, Glucocorticoid Receptor (Homo sapiens, UniProt P04150); experiment: Trans-Activation Modulation of Glucocorticoid Receptor (GRAMMER), MMTV-LUC reporter gene in A549 cells; format: cell-based; settings: for Emax: A549, A549 cells, Emax relative to 300 nM dexamethasone, read-out: Transactivation A549 Cells GRAMMER Emax; for EC50: inflection point, A549 cells, read-out: Transactivation A549 Cells GRAMMER IP
T1 construct: These cells express large amount of the GR and are very responsive to GC treatment; endogenous in cells; host or cells: A549 cells transiently transfected with the MMTV-LUC reporter
T1 sequence (P04150 1-777): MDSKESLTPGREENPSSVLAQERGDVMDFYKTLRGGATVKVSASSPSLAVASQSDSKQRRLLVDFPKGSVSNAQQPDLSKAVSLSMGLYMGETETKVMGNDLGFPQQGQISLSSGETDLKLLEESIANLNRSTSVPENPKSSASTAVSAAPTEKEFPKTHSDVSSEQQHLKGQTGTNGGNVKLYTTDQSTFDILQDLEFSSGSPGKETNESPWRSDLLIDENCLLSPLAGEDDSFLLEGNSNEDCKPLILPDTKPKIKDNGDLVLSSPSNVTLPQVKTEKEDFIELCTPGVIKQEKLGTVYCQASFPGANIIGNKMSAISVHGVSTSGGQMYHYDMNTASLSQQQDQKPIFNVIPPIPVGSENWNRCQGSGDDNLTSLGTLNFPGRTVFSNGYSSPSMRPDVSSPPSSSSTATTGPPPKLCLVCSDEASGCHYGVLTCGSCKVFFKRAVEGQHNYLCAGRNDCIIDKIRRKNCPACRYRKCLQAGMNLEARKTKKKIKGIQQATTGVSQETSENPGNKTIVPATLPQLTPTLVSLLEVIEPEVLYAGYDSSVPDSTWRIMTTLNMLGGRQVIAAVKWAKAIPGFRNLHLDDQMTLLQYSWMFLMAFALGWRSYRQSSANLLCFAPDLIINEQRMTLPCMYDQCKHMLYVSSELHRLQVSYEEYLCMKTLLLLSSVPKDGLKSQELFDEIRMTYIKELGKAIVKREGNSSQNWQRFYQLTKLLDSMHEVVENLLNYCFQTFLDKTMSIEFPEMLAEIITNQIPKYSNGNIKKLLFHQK
Summary of the method: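 Luciferase from a transiently transfected MMTV-LUC reporter was measured after 24 h compound exposure (≤1% DMSO) in A549 or MDA-MB-453 cells. For antagonism, the decrease of 10 nM dexamethasone-induced signal was calculated. For agonism, Emax was referenced to 300 nM dexamethasone.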

human GR = biological target: T2, human GR (Homo sapiens, UniProt P04150); experiment: Transrepression Assay (GITAR), TNFα-β-lactamase reporter gene in U937 cells; format: cell-based; settings: for EC50: inflection point, U937 cells, read-out: Transrepression U937 Cells GITAR IP
T2 construct: U937 cells contain an endogenous glucocorticoid receptor (GR); endogenous in cells; host or cells: U937 cells stably transfected with the TNF-alpha promoter/beta-lactamase reporter
T2 sequence (P04150 1-777): T1 sequence (P04150 1-777)
Summary of the method: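 Repression of PMA (5 ng/ml final)/LPS (100 ng/ml final)-induced TNF-α promoter activity, read as β-lactamase cleavage of CCF2-AM, in stably transfected U937 cells expressing native GR. Compound added 30-45 min before stimulation, overnight (~18 hr) 37° C; normalized to 100 nM dexamethasone (100%).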

[1] = biological target: T3, glucocorticoid receptor (GR) (Homo sapiens, UniProt P04150); experiment: Ligand binding assay (GR BIND), 3H-dexamethasone displacement in MDA-MB-453 cell lysate; settings: GR BIND Ki
T3 sequence (P04150 1-777): T1 sequence (P04150 1-777)
Description: Binding Buffer: TEGM (10 mM Tris-HCl, 1 mM EDTA, 10% glycerol, 1 mM beta-mecaptoethanol, 10 mM Sodium Molybdate, pH 7.2)
50% HAP Slurry: Calbiochem Hydroxylapatite, Fast Flow, in 10 mM Tris, pH 8.0 and 1 mM EDTA.
Wash Buffer: 40 mM Tris, pH7.5, 100 mM KCl, 1 mM EDTA and 1 mM EGTA.
Dexmethasone-methyl-^3H, (DEX*); (Amersham cat# TRK645)
Dexamethasone(DEX) (Sigma, cat# D1756):
The cell pellet is washed twice with TEGM (10 mM Tris-HCl, 1 mM EDTA, 10% glycerol, 1 mM beta-mercaptoethanol, 10 mM Sodium Molybdate, pH 7.2). After the final wash, the cells are resuspended in TEGM at a concentration of 10^7 cells/mL. The cell suspension is snap frozen in liquid nitrogen or ethanol/dry ice bath and transferred to −80° C. freezer on dry ice. Before setting up the binding assay, the frozen samples are left on ice-water to just thaw (˜1 hr). Then the samples are centrifuged at 12,500 g to 20,000 g for 30 min at 4° C. The supernatant is used to set-up assay right away. If using 50 μL of supernatant, the test compound can be prepared in 50 μL of the TEGM buffer.
Procedure for Multiple Compound Screening
1×TEGM buffer is prepared, and the isotope-containing assay mixture is prepared in the following order: EtOH (2% final concentration in reaction), ^3H-DEX (Amersham Biosciences) and 1×TEGM. [e.g. For 100 samples, 200 μL (100×2) of EtOH+4.25 μL of 1:10 ^3H-Dex stock+2300 μL (100×23) 1×TEGM]. The compound is serially diluted, e.g., if starting final conc. is 1 μM, and the compound is in 25 μL of solution, for duplicate samples, 75 μL of 4×1 μM solution is made and 3 μL of 100 μM is added to 72 μL of buffer, and 1:5 serial dilution.
25 μL of ^3H-DEX (6 nM) trace and 25 μL compound solution are first mixed together, followed by addition of 50 μL receptor solution. The reaction is gently mixed, spun briefly at about 200 rpm and incubated at 4° C. overnight. 100 μL of 50% HAP slurry is prepared and added to the incubated reaction which is then vortexed and incubated on ice for 5 to 10 minutes. The reaction mixture is vortexed twice more to resuspend HAP while incubating reaction. The samples in 96-well format are then washed in wash buffer using The FilterMate™ Universal Harvester plate washer (Packard). The washing process transfers HAP pellet containing ligand-bound expressed receptor to Unifilter-96 GF/B filter plate (Packard). The HAP pellet on the filter plate is incubated with 50 μL of MICROSCINT (Packard) scintillint for 30 minutes before being counted on the TopCount microscintillation counter (Packard). IC50s are calculated using DEX as a reference.

[2] = GITAR Emax minus GRAMMER Emax, Table 1
[3] = U-937, U937 cells, activity repressed by 100 nM dexamethasone = 100%, Table 1, read-out: Transrepression U937 Cells GITAR Emax
[4] = U-937, text statement, 100 nM dexamethasone = 100%, read-out: maximal activity in the transrepression assay (GITAR)
[5] = compounds in the art (WO03/086294)

Structure (SMILES) | Emax (Glucocorticoid Receptor; Table 1) | EC50 (Glucocorticoid Receptor; Table 1) | GITAR Greater than by GRAMMER % SEP (human GR; [2]) | Emax (human GR; [3]) | Emax (human GR; [4]) | EC50 (human GR; Table 1) | Ki ([1]; Table 1) | Emax (Glucocorticoid Receptor; compounds in the art) | EC50 (Glucocorticoid Receptor; [5]) | GITAR > GRAMM % SEP (human GR; GITAR Emax minus GRAMMER Emax, compounds in the art) | Emax (human GR; U-937, U937 cells, activity repressed by 100 nM dexamethasone = 100%, compounds in the art, read-out: Transrepression U937 Cells GITAR Emax) | EC50 (human GR; [5]) | Ki [1, 5]
C[C@]12Cc3cnn(-c4ccc(F)cc4)c3C=C1CC[C@@H]2C(=O)N1CCCC(Cc2cccc(C(F)(F)F)c2)C1 (stereo partly drawn) [Compound 21, (4αR,5S)-1-(4-fluorophenyl)-4α-methyl-5-({3-[3-(trifluoromethyl)benzyl]piperidin-1-yl}carbonyl)-1,4,4α,5,6,7-hexahydrocyclopenta[f]indazole] | 26.2% | 569 nM | 1.9% | 28.1% | > 5% | 742 nM | 2.3 nM | – | – | – | – | – | –
C[C@]12Cc3cnn(-c4ccc(F)cc4)c3C=C1CC[C@@H]2C(=O)N1CCCC(CCc2ccccc2)C1 (stereo partly drawn) [Compound 20, (4αR,5S)-1-(4-fluorophenyl)-4α-methyl-5-{[3-(2-phenylethyl)piperidin-1-yl]carbonyl}-1,4,4α,5,6,7-hexahydrocyclopenta[f]indazole] | 3.6% | 1.3 nM | 7.4% | 11% | > 5% | 693 nM | 3.1 nM | – | – | – | – | – | –
CC1CN(C(=O)[C@H]2CCC3=Cc4c(cnn4-c4ccc(F)cc4)C[C@@]32C)CC(C)O1 (stereo partly drawn) [Compound 17, (4αR,5S)-5-[(2,6-dimethylmorpholin-4-yl)carbonyl]-1-(4-fluorophenyl)-4α-methyl-1,4,4α,5,6,7-hexahydrocyclopenta[f]indazole] | 9.4% | 526 nM | 2.3% | 11.8% | > 5% | 1830 nM | 43.6 nM | – | – | – | – | – | –
C[C@]12Cc3cnn(-c4ccc(F)cc4)c3C=C1CC[C@@H]2C(=O)N1CCC(C(F)(F)F)CC1 [Compound 42, (4αR,5S)-1-(4-fluorophenyl)-4α-methyl-5-{[4-(trifluoromethyl)piperidin-1-yl]carbonyl}-1,4,4α,5,6,7-hexahydrocyclopenta[f]indazole] | 29.5% | 419 nM | 35.3% | 64.8% | > 5% | 889 nM | 21.2 nM | – | – | – | – | – | –
CC(C)CN(CC(O)C(F)(F)F)C(=O)[C@H]1CCC2=Cc3c(cnn3-c3ccccc3)C[C@@]21C (stereo partly drawn) [Compound 80, (4αR,5S)-N-isobutyl-4a-methyl-1-phenyl-N-(3,3,3-trifluoro-2-hydroxypropyl)-1,4,4α,5,6,7-hexahydrocyclopenta[f]indazole-5-carboxamide] | 70.5% | 222 nM | 12.8% | 83.2% | > 5% | 337 nM | 3.7 nM | – | – | – | – | – | –
CCNC(=O)CN(CCc1ccccc1)C(=O)[C@H]1CCC2=Cc3c(cnn3-c3ccc(F)cc3)C[C@@]21C [Compound 24, (4αR,5S)-N-[2-(ethylamino)-2-oxoethyl]-1-(4-fluorophenyl)-4α-methyl-N-(2-phenylethyl)-1,4,4α,5,6,7-hexahydrocyclopenta[f]indazole-5-carboxanide] | 9.2% | 615 nM | 5.3% | 14.5% | > 5% | 405 nM | 4.7 nM | – | – | – | – | – | –
COCCN(Cc1ccc(OC)cc1)C(=O)[C@H]1CCC2=Cc3c(cnn3-c3ccc(F)cc3)C[C@@]21C [Compound 45, (4αR,5S)-1-(4-fluorophenyl)-N-(4-methoxybenzyl)-N-(2-methoxyethyl)-4α-methyl-1,4,4α,5,6,7-hexahydrocyclopenta[f]indazole-5-carboxamide] | 2.2% | 2140 nM | 17.1% | 19.3% | > 5% | 158 nM | 8.7 nM | – | – | – | – | – | –
CCCN(CC1CCCO1)C(=O)[C@H]1CCC2=Cc3c(cnn3-c3ccc(F)cc3)C[C@@]21C (stereo partly drawn) [Compound 62, (4αR,5S)-1-(4-fluorophenyl)-4α-methyl-N-propyl-N-(tetrahydrofuran-2-ylmethyl)-1,4,4α,5,6,7-hexahydrocyclopenta[f]indazole-5-carboxamide] | 18% | 602 nM | 23.5% | 41.5% | > 5% | 688 nM | 6.9 nM | – | – | – | – | – | –
C[C@]12Cc3cnn(-c4ccc(F)cc4)c3C=C1CC[C@@H]2C(=O)NCc1ccccc1 [reference compound] | – | – | – | – | – | – | – | 103% | 502 nM | -59.6% | 43.8% | 4280 nM | 21.1 nM
CCCCN(CC(C)O)C(=O)[C@H]1CCC2=Cc3c(cnn3-c3ccc(F)cc3)C[C@@]21C (stereo partly drawn) [Compound 40, (4αR,5S)-N-butyl-1-(4-fluorophenyl)-N-(2-hydroxypropyl)-4α-methyl-1,4,4α,5,6,7-hexahydrocyclopenta[f]indazole-5-carboxamide] | 66.4% | 108 nM | 20.4% | 86.8% | > 5% | 141 nM | 5.1 nM | – | – | – | – | – | –
C[C@]12Cc3cnn(-c4ccc(F)cc4)c3C=C1CC[C@@H]2C(=O)N(CCO)c1ccccc1 [Compound 68, (4αR,5S)-1-(4-fluorophenyl)-N-(2-hydroxyethyl)-4α-methyl-N-phenyl-1,4,4α,5,6,7-hexahydrocyclopenta[f]indazole-5-carboxamide] | 3.8% | 128 nM | 14.4% | 18.2% | > 5% | 1020 nM | 3.8 nM | – | – | – | – | – | –
CC(O)CN(CC(C)O)C(=O)[C@H]1CCC2=Cc3c(cnn3-c3ccc(F)cc3)C[C@@]21C (stereo partly drawn) [Compound 10, (4αR,5S)-1-(4-fluorophenyl)-N,N-bis(2-hydroxypropyl)-4α-methyl-1,4,4α,5,6,7-hexahydrocyclopenta[f]indazole-5-carboxamide] | 40.8% | 326 nM | 19.0% | 59.8% | > 5% | 384 nM | 1.8 nM | – | – | – | – | – | –
C[C@]12Cc3cnn(-c4ccc(F)cc4)c3C=C1CC[C@@H]2C(=O)Nc1ccccc1S(N)(=O)=O [Compound 23, (4αR,5S)-N-[2-(aminosulfonyl)phenyl]-1-(4-fluorophenyl)-4α-methyl-1,4,4α,5,6,7-hexahydrocyclopenta[f]indazole-5-carboxamide] | 3.8% | 45.4 nM | 14.2% | 18% | > 5% | 1700 nM | 19.4 nM | – | – | – | – | – | –
COc1ccccc1CN(C)C(=O)[C@H]1CCC2=Cc3c(cnn3-c3ccc(F)cc3)C[C@@]21C [Compound 50, (4αR,5S)-1-{4-fluorophenyl)-N-(2-methoxybenzyl)-N,4α-dimethyl-hexahydrocyclopenta[f]indazole-5-carboxamide] | 3.4% | 1460 nM | 16.9% | 20.3% | > 5% | 226 nM | 9 nM | – | – | – | – | – | –
